From patent publication US5270302A, “Derivatives of tetrapeptides as CCK agonists” (priority 1991, dated 1993)
Read-outs that look alike come from different tables or passages of the source. *1 amine or outer side, *2 acyl side, *3 side chain or, on linkers, in order; H or OH if unused. Where a SMILES comes first, the peptide text is derived from it. Side-chain parts run from the residue outwards. [ ]: non-standard residue; d: D form. The star is where a group is joined. ξ: configuration not given here. NMeW = CN[C@@H](Cc1c[nH]c2ccccc12)C(=O)O; ξαMeW = CC(N)(Cc1c[nH]c2ccccc12)C(=O)O; 1Nal = N[C@@H](Cc1cccc2ccccc12)C(=O)O; NMeF = CN[C@@H](Cc1ccccc1)C(=O)O; Cha = N[C@@H](CC1CCCCC1)C(=O)O; NMeD = CN[C@@H](CC(=O)O)C(=O)O; NH(2-Me-phenyl) = Cc1ccccc1N*; Suc = O=C(CCC(=O)[*:2])[*:1]; X5 = O=C(CCc1ccc(O)c(I)c1)*; X15 = Clc1cccc(N*)c1Cl; Boc = CC(C)(C)OC(=O)*; CO = O=C([*:1])[*:2]; X2 = C1CN(CCO*)CCO1; Ms = CS(=O)(=O)*; Moc = COC(=O)*

What was measured:
Type-B CCK receptor = biological target: T1, Type-B CCK receptor (Cavia porcellus, UniProt H0VZC5); experiment: Radioligand binding of [125I]BH-CCK-8 in guinea pig cerebral cortical membrane preparations
T1 construct: Cortical and pancreatic membranes were prepared as described; from tissue; host or cells: guinea pig cerebral cortex membranes
T1 sequence (H0VZC5 1-426): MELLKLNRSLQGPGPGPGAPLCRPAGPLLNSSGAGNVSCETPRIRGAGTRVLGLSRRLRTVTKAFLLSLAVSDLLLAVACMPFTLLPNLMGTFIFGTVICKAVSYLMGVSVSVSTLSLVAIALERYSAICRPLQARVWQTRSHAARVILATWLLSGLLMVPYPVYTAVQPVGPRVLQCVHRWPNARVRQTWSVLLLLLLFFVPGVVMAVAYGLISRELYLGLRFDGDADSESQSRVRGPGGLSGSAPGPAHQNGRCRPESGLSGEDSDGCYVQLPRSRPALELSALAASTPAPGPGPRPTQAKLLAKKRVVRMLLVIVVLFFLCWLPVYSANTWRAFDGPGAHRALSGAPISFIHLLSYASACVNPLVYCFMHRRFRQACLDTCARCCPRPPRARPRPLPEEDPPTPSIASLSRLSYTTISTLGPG
How it was run: (§1)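 Membranes came from male guinea pig pancreas (type A) or cerebral cortex (type B) and were resuspended in pH 7.4 HEPES-EGTA-salt buffer containing bestatin and phosphoramidon. Test compounds competed with [125I]BH-CCK-8 in 0.1% BSA: cortex 150 min at 30 °C, pancreas 150 min at 37 °C. Reactions ended by filtration; IC50 from Hill analysis.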

Type-A CCK receptor = biological target: T2, Type-A CCK receptor (Cavia porcellus, UniProt Q63931); experiment: Radioligand binding of [125I]BH-CCK-8 in guinea pig pancreatic membrane preparations
T2 construct: Cortical and pancreatic membranes were prepared as described; from tissue; host or cells: guinea pig pancreas membranes
T2 sequence (Q63931 1-430): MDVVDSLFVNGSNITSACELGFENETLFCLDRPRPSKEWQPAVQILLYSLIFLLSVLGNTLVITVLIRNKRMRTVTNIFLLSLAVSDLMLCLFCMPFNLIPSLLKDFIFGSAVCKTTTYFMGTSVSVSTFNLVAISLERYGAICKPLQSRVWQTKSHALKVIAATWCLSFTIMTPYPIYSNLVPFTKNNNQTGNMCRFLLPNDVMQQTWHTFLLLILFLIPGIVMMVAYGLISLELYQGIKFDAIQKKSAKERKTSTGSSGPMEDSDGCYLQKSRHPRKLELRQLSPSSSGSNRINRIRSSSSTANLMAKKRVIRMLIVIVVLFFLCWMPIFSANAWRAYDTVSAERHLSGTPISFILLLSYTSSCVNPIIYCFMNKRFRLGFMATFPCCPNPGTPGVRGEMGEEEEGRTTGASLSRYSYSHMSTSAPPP
How it was run: as §1

[1] = guinea pig cortical membranes, 30° C., 150 minutes, read-out: IC50 (nM) 125I-BH-CCK-8 Type-B receptor
[2] = guinea pig pancreatic membranes, 37° C., 150 min, read-out: IC50 (nM) 125I-BH-CCK-8 Type-A receptor
[3] = IC50 (nM) 125I-BH-CCK-8 Type-B receptor, guinea pig cortical membranes, 30° C., 150 minutes
[4] = IC50 (nM) 125I-BH-CCK-8 Type-A receptor, guinea pig pancreatic membranes, 37° C., 150 min

Cc1ccccc1NC(=O)NCCCC[C@H](NC(=O)[C@H](Cc1c[nH]c2ccccc12)NC(=O)CCc1ccc(O)c(I)c1)C(=O)N[C@@H](CC(=O)O)C(=O)N(C)[C@@H](Cc1ccccc1)C(N)=O [Example 93, (3-(4-Hydroxy-3-iodophenyl)propionyl)-Trp-Lys(ε-N-(2-methylphenyl)aminocarbonyl)-Asp-(NMe)PheNH2] (X5-WK([CO-NH(2-Me-phenyl)])D[NMeF]-NH2)
IC50 (Type-B CCK receptor): 4200 nM | IC50 (Type-A CCK receptor): 4.6 nM

Cc1ccccc1NC(=O)NCCCC[C@H](NC(=O)[C@H](Cc1c[nH]c2ccccc12)NC(=O)CCC(=O)O)C(=O)N[C@@H](CC(=O)O)C(=O)N(C)[C@@H](Cc1ccccc1)C(N)=O [Example 94, (3-Carboxylpropionyl)-Trp-Lys(ε-N-(2-methylphenyl)aminocarbonyl)-Asp-(NMe)PheNH2] (Suc-WK([CO-NH(2-Me-phenyl)])D[NMeF]-NH2)
IC50 (Type-B CCK receptor): 5600 nM | IC50 (Type-A CCK receptor): 16 nM

Cc1ccccc1NC(=O)NCCCC[C@H](NC(=O)[C@H](Cc1c[nH]c2ccccc12)NS(C)(=O)=O)C(=O)N[C@@H](CC(=O)O)C(=O)N(C)[C@@H](Cc1ccccc1)C(N)=O [Example 95, Methylsufonamyl-Trp-Lys(ε-N-(2-methylphenyl)aminocarbonyl)-Asp-(NMe)PheNH2] (Ms-WK([CO-NH(2-Me-phenyl)])D[NMeF]-NH2)
IC50 (Type-B CCK receptor; [1]): > 10000 nM | IC50 (Type-A CCK receptor; [2]): 47 nM

Cc1ccccc1NC(=O)NCCCC[C@H](NC(=O)C(C)(Cc1c[nH]c2ccccc12)NC(=O)OC(C)(C)C)C(=O)N[C@@H](CC(=O)O)C(=O)N[C@@H](Cc1ccccc1)C(N)=O (stereo partly drawn) [Example 96, t-BOC-D,L-(α-methyl)Trp-Lys(ε-N-(2-methylphenyl)aminocarbonyl)-Asp-PheNH2] (Boc-[ξαMeW]K([CO-NH(2-Me-phenyl)])DF-NH2)
IC50 (Type-B CCK receptor; [3]): 9300 nM | IC50 (Type-A CCK receptor; [4]): 16 nM

CN[C@@H](Cc1c[nH]c2ccccc12)C(=O)N[C@@H](CCCCNC(=O)Nc1ccccc1C)C(=O)N(C)[C@@H](CC(=O)O)C(=O)N[C@@H](Cc1cccc2ccccc12)C(N)=O [Example 100, (NMe)Trp-Lys(ε-N-(2-methylphenyl)aminocarbonyl)-(NMe)Asp-α-NalNH2] (H-[NMeW]K([CO-NH(2-Me-phenyl)])[NMeD][1Nal]-NH2)
IC50 (Type-B CCK receptor; [3]): 12000 nM | IC50 (Type-A CCK receptor; [4]): 8 nM

CN[C@@H](Cc1c[nH]c2ccccc12)C(=O)N[C@@H](CCCCNC(=O)Nc1ccccc1C)C(=O)N[C@@H](CC(=O)O)C(=O)N(C)[C@@H](Cc1ccccc1)C(N)=O [Example 101, (NMe)Trp-Lys(ε-N-(2-methylphenyl)aminocarbonyl)-Asp-(NMe)PheNH2] (H-[NMeW]K([CO-NH(2-Me-phenyl)])D[NMeF]-NH2)
IC50 (Type-B CCK receptor; [3]): 12000 nM | IC50 (Type-A CCK receptor; [4]): 9.3 nM

Cc1ccccc1NC(=O)NCCCC[C@H](NC(=O)CCc1c[nH]c2ccccc12)C(=O)N(C)[C@@H](CC(=O)O)C(=O)N(C)[C@@H](Cc1ccccc1)C(N)=O [Example 102]
IC50 (Type-B CCK receptor; [1]): 2500 nM | IC50 (Type-A CCK receptor; [2]): 14 nM

Cc1ccccc1NC(=O)NCCCC[C@H](NC(=O)CCc1c[nH]c2ccccc12)C(=O)N(C)[C@@H](CC(=O)O)C(=O)N[C@@H](Cc1cccc2ccccc12)C(N)=O [Example 103, (3-(3-Indolyl)propionyl)-Lys(ε-N-(2-methylphenyl)aminocarbonyl)-(NMe)Asp-α-NalNH2]
IC50 (Type-B CCK receptor; [1]): 6600 nM | IC50 (Type-A CCK receptor; [2]): 6.1 nM

Cc1ccccc1NC(=O)NCCCC[C@H](NC(=O)C(C)Cc1c[nH]c2ccccc12)C(=O)N[C@@H](CC(=O)O)C(=O)N(C)[C@@H](Cc1ccccc1)C(N)=O (stereo partly shown) [Example 104, (2-Methyl-3-(3-indolyl)propionyl)-Lys(ε-N-(2-methylphenyl)aminocarbonyl)-Asp-(NMe)PheNH2]
IC50 (Type-B CCK receptor; [1]): 4100 nM | IC50 (Type-A CCK receptor; [2]): 200 nM

Cc1ccccc1NC(=O)NCCCC[C@H](NC(=O)C(C#N)Cc1c[nH]c2ccccc12)C(=O)N[C@@H](CC(=O)O)C(=O)N(C)[C@@H](Cc1ccccc1)C(N)=O (stereo partly shown) [Example 105, (2-Cyano-3-(3-indolyl)propionyl)-Lys(ε-N-(2-methylphenyl)aminocarbonyl)-Asp-(NMe)PheNH2]
IC50 (Type-B CCK receptor; [1]): 1300 nM | IC50 (Type-A CCK receptor; [2]): 20 nM

Cc1ccccc1NC(=O)NCCCC[C@H](NC(=O)C(F)Cc1c[nH]c2ccccc12)C(=O)N[C@@H](CC(=O)O)C(=O)N(C)[C@@H](Cc1ccccc1)C(N)=O (stereo partly shown) [Example 108, (2-Fluoro-3-(3-indolyl)propionyl)-Lys(ε-N-(2-methylphenyl)aminocarbonyl)-Asp-(NMe)PheNH2]
IC50 (Type-B CCK receptor; [1]): 10000 nM | IC50 (Type-A CCK receptor; [2]): 14 nM

Cc1ccccc1NC(=O)NCCCC[C@H](NC(=O)C(F)Cc1c[nH]c2ccccc12)C(=O)N(C)[C@@H](CC(=O)O)C(=O)N[C@@H](Cc1ccccc1)C(N)=O (stereo partly shown) [Example 109, (2-Fluoro-3-(3-indolyl)propionyl)-Lys(ε-N-(2-methylphenyl)aminocarbonyl)-(NMe)Asp-PheNH2]
IC50 (Type-B CCK receptor; [1]): > 10000 nM | IC50 (Type-A CCK receptor; [2]): 15 nM

Cc1ccccc1NC(=O)NCCCC[C@H](NC(=O)CCc1cccc2ccccc12)C(=O)N[C@@H](CC(=O)O)C(=O)N(C)[C@@H](Cc1ccccc1)C(N)=O [Example 111, (3-(α-Naphthyl)propionyl)-Lys(ε-N-(2-methylphenyl)aminocarbonyl)-Asp-(NMe)PheNH2]
IC50 (Type-B CCK receptor; [1]): > 10000 nM | IC50 (Type-A CCK receptor; [2]): 77 nM

Cc1ccccc1NC(=O)NCCCC[C@H](NC(=O)C1Cc2c[nH]c3cccc(c23)CC(=O)N1)C(=O)N[C@@H](CC(=O)O)C(=O)N(C)[C@@H](Cc1ccccc1)C(N)=O (stereo partly shown) [Example 112, Ctp-Lys(ε-N-(2-methylphenyl)aminocarbonyl)-Asp-(NMe)PheNH2]
IC50 (Type-B CCK receptor; [3]): 900 nM | IC50 (Type-A CCK receptor; [4]): 6.3 nM

Cc1ccccc1NC(=O)NCCCC[C@H](NC(=O)[C@H](Cc1c[nH]c2ccccc12)NC(=O)OC(C)(C)C)C(=O)N[C@@H](CC(=O)O)C(=O)N1CCC[C@]1(Cc1ccccc1)C(N)=O [Example 115, t-BOC-Trp-Lys(ε-N-(2-methylphenyl)aminocarbonyl)-Asp-(S)-α-benzylprolinamide]
IC50 (Type-B CCK receptor; [3]): > 10000 nM | IC50 (Type-A CCK receptor; [4]): 18 nM

Cc1ccccc1NC(=O)NCCCC[C@H](NC(=O)[C@H](Cc1c[nH]c2ccccc12)NC(=O)OC(C)(C)C)C(=O)N[C@@H](CC(=O)O)C(=O)N[C@@H](CC1CCCCC1)C(N)=O [Example 116, t-BOC-Trp-Lys(ε-N-(2-methylphenyl)aminocarbonyl)-Asp-ChaNH2] (Boc-WK([CO-NH(2-Me-phenyl)])D[Cha]-NH2)
IC50 (Type-B CCK receptor; [3]): 4000 nM | IC50 (Type-A CCK receptor; [4]): 10 nM

Cc1ccccc1NC(=O)NCCCC[C@H](NC(=O)[C@H](Cc1c[nH]c2ccccc12)NC(=O)OC(C)(C)C)C(=O)N[C@@H](CC(=O)OCCN1CCOCC1)C(=O)N(C)[C@@H](Cc1ccccc1)C(N)=O [Example 120, t-BOC-Trp-Lys(ε-N-(2-methylphenyl)aminocarbonyl)-Asp(β-2-(1-morpholino)ethyl)-(NMe)PheNH2] (Boc-WK([CO-NH(2-Me-phenyl)])D(X2)[NMeF]-NH2)
IC50 (Type-B CCK receptor): 13000 nM | IC50 (Type-A CCK receptor): 26 nM

Cc1ccccc1NC(=O)NCCCC[C@H](NC(=O)C(C)(N)Cc1c[nH]c2ccccc12)C(=O)N(C)[C@@H](CC(=O)O)C(=O)N[C@@H](Cc1ccccc1)C(N)=O (stereo partly shown) [Example 123] (H-[ξαMeW]K([CO-NH(2-Me-phenyl)])[NMeD]F-NH2)
IC50 (Type-B CCK receptor; [3]): > 10000 nM | IC50 (Type-A CCK receptor; [4]): 5.9 nM

COC(=O)N[C@@H](Cc1c[nH]c2ccccc12)C(=O)N[C@@H](CCCCNC(=O)Nc1ccccc1C)C(=O)N(C)[C@@H](CC(=O)O)C(=O)N(C)[C@@H](Cc1ccccc1)C(N)=O [Example 124] (Moc-WK([CO-NH(2-Me-phenyl)])[NMeD][NMeF]-NH2)
IC50 (Type-B CCK receptor; [3]): 2600 nM | IC50 (Type-A CCK receptor; [4]): 4.5 nM

CC(C)(C)OC(=O)N[C@@H](Cc1c[nH]c2ccccc12)C(=O)N[C@@H](CCCCNC(=O)Nc1cccc(Cl)c1Cl)C(=O)N[C@@H](CC(=O)O)C(=O)N[C@@H](Cc1ccccc1)C(N)=O [Example 125, t-BOC-Trp-Lys(ε-N-(2,3-dichlorophenyl)aminocarbonyl)-Asp-PheNH2] (Boc-WK([CO-X15])DF-NH2)
IC50 (Type-B CCK receptor; [1]): > 10000 nM | IC50 (Type-A CCK receptor; [2]): 2.8 nM
